Source: PMC6901946, “Intranasal MMI-0100 Attenuates Aβ1−42- and LPS-Induced Neuroinflammation and Memory Impairments via the MK2 Signaling Pathway” (Frontiers in Immunology, 2019)
Ends that are not written are not given here.

What was measured:
[1] = system: Kunming mice; assay: Novel object recognition (NOR) task; assay type: in vivo, mouse; conditions: Aβ1−42 800 pmol i.c.v. 14 days before, tested after 24 h
Experimental: (§1) MMI-0100 or vehicle was infused into the brain by using a 32-gauge stainless steel syringe needle placed in and projecting 0.5 mm below the tip of the cannula for 2 min. This needle was connected via a PE tube to a 5-μl Hamilton syringe mounted to a Microdrive pump (KD Scientific). To allow the drug to diffuse, the infusion syringe remained in place for 1 min. For the lateral ventricle, injection volume is 2 μl, and for the bilateral hippocampus CA1, injection volume is 0.5 μl/side. After drug administration, each mouse was subjected to behavioral testing immediately. In addition, the selection of the doses was based on the previous reports and our preliminary observations ([24]).
(§2) The behavior experiments were carried out 15 min after i.c.v. injection of MMI-0100, or 2 h after intranasal infusion of MMI-0100. The cytokines were measured 15 min after i.c.v. injection of MMI-0100.
(§3) The procedures for the novel object recognition (NOR) and object location recognition (OLR) tasks were described in our previous report ([23], [30]). The videos for NOR and OLR tasks were shown in Supplementary Material. […] The discrimination index (DI) in the memory retention phase was calculated as the percentage of the time a mouse explored the new object or location over the total time the mouse explored the two objects or locations. […]

[2] = system: IL-6, IL-1β, TNF-α, iNOS; assay: Quantitative PCR of pro-inflammatory factors in hippocampus; assay type: in vivo, mouse; conditions: Aβ1−42-induced model; 15 min after i.c.v. MMI-0100; Figure 5; n = 5
Experimental: Amnesia was caused by Aβ1−42 injection for 14 days or LPS infusion for 3 days; 15 min after injection of MMI-0100 or vehicle, the hippocampus was removed from mice. Real-time RT-PCR was performed according to a previous report ([31]). Total RNA was extracted using Trizol reagent (TaKaRa) and 1 μg of RNA in each sample was reversely transcribed into a single-stranded complementary DNA with the 5X PrimeScript RT Master Mix (TaKaRa) following the manufacturer's instructions. Amplification was carried out in a 25 μl reaction mixture consisting of 12.5 μl of 2X SYBR Premis Ex TaqTM II, 2 μl of cDNA, 1 μl of forward primer, 1 μl of reverse primer, and 8.5 μl of H2O, and was run under the following conditions: 95°C for 30 s, followed by 40 cycles of 95°C for 5 s, 58°C for 30 s, and 72°C for 30 s. The primer pair P1/P2 was used in the RT-PCR assay to identify the expression level of TNF-α, IL-6, IL-1β, and iNOS gene in vehicle + vehicle-, Aβ1−42 + vehicle-, Aβ1−42 + MMI-0100-, LPS + vehicle-, and LPS + MMI-0100-treated groups.

[3] = system: TNF-α, IL-1β, IL-6; assay: ELISA of pro-inflammatory cytokines in hippocampus; assay type: in vivo, mouse; conditions: Aβ1−42-induced model, Figure 6, n = 5
Experimental: Total proteins from the hippocampus of mice in each group were extracted with RIPA lysis buffer containing protease inhibitor (Gibco, Thermo Fisher Scientific, Inc.). Total proteins were determined using a bicinchoninic acid protein assay kit (Sangon Biotech Co., Ltd.). IL-1β, IL-6, and TNF-α in the hippocampus tissue were measured using ELISA kits (cat number: E-EL-M0049 for TNF-α, cat number: E-EL-M0044 for IL-6, cat number: E-EL-M0037 for IL-1β, Elabscience), according to the manufacturer's instructions.

[4] = target: T1, MK2 (Mus musculus, UniProt P49138); assay: Western blotting of pMK2 in hippocampus; assay type: in vivo; conditions: Aβ1−42-induced model; Figure 7; n = 5
T1 construct: the protein samples (40 μg per lane) isolated from the hippocampus were separated by SDS-PAGE; from tissue; host or cells: mouse hippocampus
T1 sequence (P49138 whole entry): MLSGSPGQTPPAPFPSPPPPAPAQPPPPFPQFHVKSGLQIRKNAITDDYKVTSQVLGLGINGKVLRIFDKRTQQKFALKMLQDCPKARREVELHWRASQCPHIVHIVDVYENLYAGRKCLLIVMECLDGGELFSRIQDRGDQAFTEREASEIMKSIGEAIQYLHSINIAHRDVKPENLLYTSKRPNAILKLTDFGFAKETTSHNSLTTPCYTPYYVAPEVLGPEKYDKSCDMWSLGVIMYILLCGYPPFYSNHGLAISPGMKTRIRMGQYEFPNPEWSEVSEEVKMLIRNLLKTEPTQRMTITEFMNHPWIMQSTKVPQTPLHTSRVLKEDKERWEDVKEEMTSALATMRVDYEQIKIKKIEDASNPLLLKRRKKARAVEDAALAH
Experimental: Western blotting was carried out as per the manufacturer's instructions (Bio-Rad Laboratories, Inc). Protein was extracted with RIPA buffer containing protease inhibitor (Gibco; Thermo Fisher Scientific, Inc.). The protein concentration was determined using a BCA protein assay kit (Pierce; Thermo Fisher Scientific, Inc.). Briefly, the protein samples (40 μg per lane) isolated from the hippocampus were separated by SDS-PAGE and electrophoretically transferred onto polyvinylidene fluoride membranes. Membranes were blocked with 5% skimmed milk for 2 h and incubated overnight at 4°C with specific first antibodies. GAPDH was used as a loading control. Subsequently, the membranes were incubated with the corresponding secondary antibodies and the reaction was visualized with chemiluminescence reagents provided with an ECL kit (Thermo) and exposed to a film. The intensity of the blots was quantified with densitometry (Image J 1.49v; National Institutes of Health).

[5] = system: Kunming mice; assay: Object location recognition (OLR) task; assay type: in vivo, mouse; conditions: Aβ1−42 800 pmol i.c.v. 14 days before, tested after 24 h
Experimental: as §1, §2, §3

[6] = in vitro; conditions: mouse, brain homogenates
Experimental: The peptide levels after incubation were expressed as percent parent remaining. Points indicate the means and vertical lines indicate the SEM of 3 separate experiments.

[7] = intranasal experiment (Figure 10), MMI-0100 25 nmol intranasal or vehicle

Aβ1−42: Aβ1−42 peptide purchased from Hangzhou Chinese Peptide Biochemical Company, oligomer used to induce AD model
discrimination index (DI), NOR ([1]; Figure 2A, MMI-0100 5 nmol i.c.v. or vehicle, chance level 50%): 50.96%
discrimination index (DI), NOR [1, 7]: 50.98%
mRNA level of IL-6, IL-1β, TNF-α and iNOS in hippocampus [2]: dramatically increased
protein levels of IL-6, IL-1β and TNF-α in hippocampus [3]: higher
phosphorylation of MK2 (pMK2/tMK2) in hippocampus [4]: significantly up-regulated
discrimination index (DI), OLR ([5]; Figure 3A, MMI-0100 5 nmol i.c.v. or vehicle, chance level 50%): 48.04%
discrimination index (DI), OLR [5, 7]: 46.31%

YARAAARQARAKALARQLGVAA [MMI-0100]
half-life [6]: ~2.69 h
